ChEMBL document CHEMBL1201862, “PubChem BioAssay data set” (2004)
Calls of active or inactive are those of the source.

What was measured:
[1] = molecular target: FAD-linked sulfhydryl oxidase ALR (Homo sapiens, UniProt P55789); test: inhibitors of human ALR sulfhydryl oxidase, dose response, biochemical, H2O2 detection, luminescence, cherry-pick (AID 493248)
Nonstructural protein 1 = Nonstructural protein 1 (Influenza A virus, UniProt Q194T2); assay type: functional, Influenza A virus (A/California/07/2009(H1N1))
Sequence of Nonstructural protein 1 (Q194T2 whole entry): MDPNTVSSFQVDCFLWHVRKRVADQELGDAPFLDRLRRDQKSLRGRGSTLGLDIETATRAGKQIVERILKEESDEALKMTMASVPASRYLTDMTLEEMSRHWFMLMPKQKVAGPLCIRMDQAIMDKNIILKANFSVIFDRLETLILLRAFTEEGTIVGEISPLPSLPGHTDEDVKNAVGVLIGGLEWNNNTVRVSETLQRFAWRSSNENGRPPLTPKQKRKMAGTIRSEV

[2] = molecular target: T1, Rac GTPase-activating protein 1 (Homo sapiens, UniProt Q9H0H5); test: MgcRacGAP GTPase-activating activity inhibitors, confirmation, biochemical, ADP Hunter fluorescence, primary and confirmatory (AID 624330); assay type: functional
T1 sequence (Q9H0H5 whole entry): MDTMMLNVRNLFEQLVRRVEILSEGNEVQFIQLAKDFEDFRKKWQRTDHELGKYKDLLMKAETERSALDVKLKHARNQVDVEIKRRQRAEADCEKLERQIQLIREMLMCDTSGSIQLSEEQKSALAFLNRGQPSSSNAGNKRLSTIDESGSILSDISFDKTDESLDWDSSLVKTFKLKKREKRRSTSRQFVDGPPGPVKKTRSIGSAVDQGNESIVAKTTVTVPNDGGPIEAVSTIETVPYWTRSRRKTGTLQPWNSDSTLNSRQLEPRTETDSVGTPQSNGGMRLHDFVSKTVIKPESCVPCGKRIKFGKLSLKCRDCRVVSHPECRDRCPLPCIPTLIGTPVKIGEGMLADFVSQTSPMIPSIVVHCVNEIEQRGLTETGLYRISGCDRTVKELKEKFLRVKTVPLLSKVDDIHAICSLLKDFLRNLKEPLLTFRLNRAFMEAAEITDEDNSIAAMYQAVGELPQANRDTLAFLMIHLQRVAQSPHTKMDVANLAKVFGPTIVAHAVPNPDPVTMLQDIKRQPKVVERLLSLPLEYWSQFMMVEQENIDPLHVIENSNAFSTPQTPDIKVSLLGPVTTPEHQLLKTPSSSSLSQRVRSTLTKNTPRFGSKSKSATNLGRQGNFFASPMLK

[3] = microbe, parasite or virus in culture; assay type: functional; settings: Mycobacterium tuberculosis
Cytochrome P450 1A2 = molecular target: T2, Cytochrome P450 1A2 (Homo sapiens, UniProt P05177);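 note: PubChem cytochrome P450 panel assay, CYP1A2 panel member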
T2 sequence (P05177 whole entry): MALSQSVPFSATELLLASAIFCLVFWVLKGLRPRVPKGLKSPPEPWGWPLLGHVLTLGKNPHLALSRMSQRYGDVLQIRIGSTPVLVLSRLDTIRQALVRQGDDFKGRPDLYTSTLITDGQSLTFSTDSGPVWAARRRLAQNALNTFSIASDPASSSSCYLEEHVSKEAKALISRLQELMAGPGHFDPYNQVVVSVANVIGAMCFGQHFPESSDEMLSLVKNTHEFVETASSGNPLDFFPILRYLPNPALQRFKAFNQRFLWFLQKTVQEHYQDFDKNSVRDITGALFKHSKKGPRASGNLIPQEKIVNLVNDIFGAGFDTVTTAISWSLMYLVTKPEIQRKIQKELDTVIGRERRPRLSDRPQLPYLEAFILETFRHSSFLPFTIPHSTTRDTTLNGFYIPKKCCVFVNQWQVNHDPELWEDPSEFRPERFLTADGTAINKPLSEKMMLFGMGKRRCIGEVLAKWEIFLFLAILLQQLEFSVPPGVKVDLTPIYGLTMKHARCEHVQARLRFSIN

[4] = molecular target: Voltage-dependent T-type calcium channel subunit alpha-1H (Homo sapiens, UniProt O95180); assay type: functional;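 note: channel activity triggered by adding a high calcium stimulation buffer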
Sequence of Voltage-dependent T-type calcium channel subunit alpha-1H (O95180 whole entry): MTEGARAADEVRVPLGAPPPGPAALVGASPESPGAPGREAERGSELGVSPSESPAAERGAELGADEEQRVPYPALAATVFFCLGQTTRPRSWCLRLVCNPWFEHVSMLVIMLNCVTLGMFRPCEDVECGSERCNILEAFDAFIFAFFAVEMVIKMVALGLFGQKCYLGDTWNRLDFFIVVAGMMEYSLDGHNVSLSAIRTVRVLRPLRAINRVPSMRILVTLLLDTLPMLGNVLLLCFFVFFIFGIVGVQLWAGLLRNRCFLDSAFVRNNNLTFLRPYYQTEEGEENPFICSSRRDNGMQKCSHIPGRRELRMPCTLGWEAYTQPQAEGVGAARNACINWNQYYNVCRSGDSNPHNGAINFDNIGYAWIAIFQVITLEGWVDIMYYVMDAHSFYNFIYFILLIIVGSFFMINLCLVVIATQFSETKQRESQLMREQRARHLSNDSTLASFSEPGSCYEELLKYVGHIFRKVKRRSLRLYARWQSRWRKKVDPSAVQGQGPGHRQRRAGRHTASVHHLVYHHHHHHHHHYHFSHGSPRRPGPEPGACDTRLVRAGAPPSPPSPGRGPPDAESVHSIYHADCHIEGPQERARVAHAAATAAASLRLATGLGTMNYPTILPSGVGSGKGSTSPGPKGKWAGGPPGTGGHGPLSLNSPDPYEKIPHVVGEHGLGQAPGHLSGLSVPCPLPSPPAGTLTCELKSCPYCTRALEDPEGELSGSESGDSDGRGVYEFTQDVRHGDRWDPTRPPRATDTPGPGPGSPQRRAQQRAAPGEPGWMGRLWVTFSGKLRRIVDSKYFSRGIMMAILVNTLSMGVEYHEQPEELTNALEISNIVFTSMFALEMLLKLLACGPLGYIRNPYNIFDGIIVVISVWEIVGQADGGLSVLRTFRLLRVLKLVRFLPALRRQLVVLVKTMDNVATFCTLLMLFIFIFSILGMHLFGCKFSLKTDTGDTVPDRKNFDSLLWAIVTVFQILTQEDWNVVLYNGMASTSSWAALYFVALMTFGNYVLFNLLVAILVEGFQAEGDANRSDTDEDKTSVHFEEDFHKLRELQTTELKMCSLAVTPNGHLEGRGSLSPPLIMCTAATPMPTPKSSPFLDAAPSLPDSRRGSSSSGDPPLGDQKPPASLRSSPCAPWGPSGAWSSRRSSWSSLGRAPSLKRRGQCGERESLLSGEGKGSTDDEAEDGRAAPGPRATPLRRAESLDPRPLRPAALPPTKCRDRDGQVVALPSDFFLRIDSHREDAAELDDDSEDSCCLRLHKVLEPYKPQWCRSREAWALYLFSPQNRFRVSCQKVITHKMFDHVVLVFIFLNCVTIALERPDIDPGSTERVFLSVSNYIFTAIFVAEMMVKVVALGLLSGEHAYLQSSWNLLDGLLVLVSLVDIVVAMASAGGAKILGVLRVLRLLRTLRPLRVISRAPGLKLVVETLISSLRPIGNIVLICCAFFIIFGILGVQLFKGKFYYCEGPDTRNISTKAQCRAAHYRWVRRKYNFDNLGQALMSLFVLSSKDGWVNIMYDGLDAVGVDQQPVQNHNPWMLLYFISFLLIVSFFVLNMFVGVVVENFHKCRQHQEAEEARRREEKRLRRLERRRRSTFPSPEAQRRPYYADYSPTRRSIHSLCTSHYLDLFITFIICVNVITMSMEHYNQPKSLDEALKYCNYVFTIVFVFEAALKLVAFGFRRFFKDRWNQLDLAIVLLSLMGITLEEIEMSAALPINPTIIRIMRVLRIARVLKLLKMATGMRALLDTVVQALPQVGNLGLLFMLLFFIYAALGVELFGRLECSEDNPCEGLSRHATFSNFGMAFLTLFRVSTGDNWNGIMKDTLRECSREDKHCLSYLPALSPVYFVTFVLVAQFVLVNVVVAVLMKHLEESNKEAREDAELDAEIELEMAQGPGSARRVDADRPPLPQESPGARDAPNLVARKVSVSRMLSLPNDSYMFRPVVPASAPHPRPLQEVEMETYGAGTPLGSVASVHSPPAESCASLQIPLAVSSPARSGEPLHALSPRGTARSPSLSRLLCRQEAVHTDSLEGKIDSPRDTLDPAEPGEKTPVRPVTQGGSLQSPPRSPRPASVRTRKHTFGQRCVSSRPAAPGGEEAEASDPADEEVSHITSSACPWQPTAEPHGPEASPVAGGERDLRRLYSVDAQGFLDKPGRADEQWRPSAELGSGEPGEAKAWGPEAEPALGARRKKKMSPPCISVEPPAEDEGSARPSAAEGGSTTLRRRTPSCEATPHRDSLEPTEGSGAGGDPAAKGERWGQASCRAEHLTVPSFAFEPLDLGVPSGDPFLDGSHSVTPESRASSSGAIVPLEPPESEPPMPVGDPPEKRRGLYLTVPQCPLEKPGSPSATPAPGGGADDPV

[5] = cytotoxicity toward NIH3T3 fibroblasts, dose response, counter-screen, cell-based, ATP luminescence, mouse fibroblasts (AID 2010); assay type: functional;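 note: cells exposed to compound for about 90 hours before reading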
[6] = inhibitors of intracellular T. cruzi replication, confirmation, NIH3T3 host cells, beta-gal luminescence (AID 2044); assay type: functional, cell-based;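 note: intracellular parasites grown in NIH/3T3 mouse fibroblasts as host cells; luminescent beta-galactosidase reporter signal from transgenic T. cruzi replicating inside host cells; inhibitors lower the luminescence signal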
Streptococcus = test: Group A Streptococcus viability loss, dose response, counter-screen for streptokinase expression inhibitor project, luminescence, BacTiterGlo (AID 1915); assay type: functional, organism-based;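 note: potency for reduction of bacterial viability or growth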
[7] = NIH-3T3 fibroblast cytotoxicity, dose response, cytotoxicity control, cell-based, fluorescence, Alamar Blue, secondary assay (AID 2327); assay type: functional;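 note: NIH-3T3 mouse fibroblasts cultured with fluconazole at 8 µg/mL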
[8] = tested on: Streptococcus sp. 'group A'; test: growth inhibition of control SK(-) GAS strain, dose response, counter-screen for streptokinase expression inhibitor project, luminescence, kanamycin, BacTiterGlo, confirmation (AID 1900); assay type: functional, organism-based
[9] = C. albicans growth with fluconazole, confirmation, fluorescence, retest (AID 2467); assay type: functional, cell-based
[10] = molecular target: T3, Polyadenylate-binding protein 1 (Homo sapiens, UniProt P11940); test: PABP1 MLLE–PAM2 interaction inhibitors, dose response, miRNA deadenylation inhibitor project, biochemical, fluorescence polarization, Cy5-PAM2 peptide, secondary (AID 602260); assay type: functional; settings: read-out: IC50_Mean
T3 sequence (P11940 whole entry): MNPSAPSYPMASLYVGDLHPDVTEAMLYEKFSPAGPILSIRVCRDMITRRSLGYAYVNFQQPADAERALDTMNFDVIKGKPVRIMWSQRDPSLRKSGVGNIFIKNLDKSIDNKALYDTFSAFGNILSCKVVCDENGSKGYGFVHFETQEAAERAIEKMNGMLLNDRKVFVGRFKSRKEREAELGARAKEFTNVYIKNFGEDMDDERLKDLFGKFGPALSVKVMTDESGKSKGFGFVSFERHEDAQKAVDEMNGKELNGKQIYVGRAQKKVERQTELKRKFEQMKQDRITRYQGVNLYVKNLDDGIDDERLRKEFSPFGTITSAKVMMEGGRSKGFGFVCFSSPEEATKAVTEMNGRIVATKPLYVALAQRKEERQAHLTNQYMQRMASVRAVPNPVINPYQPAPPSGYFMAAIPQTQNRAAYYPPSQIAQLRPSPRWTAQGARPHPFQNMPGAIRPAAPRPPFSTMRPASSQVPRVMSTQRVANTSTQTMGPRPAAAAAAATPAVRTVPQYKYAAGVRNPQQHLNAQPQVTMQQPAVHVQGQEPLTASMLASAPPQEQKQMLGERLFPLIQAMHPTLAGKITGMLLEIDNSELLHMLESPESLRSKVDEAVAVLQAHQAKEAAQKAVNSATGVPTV

[11] = molecular target: T3, Polyadenylate-binding protein 1; test: PABP1 MLLE–PAM2 binding inhibitor potency, dose response, biochemical, fluorescence polarization, FITC-PAM2 peptide (AID 602259); assay type: functional; settings: read-out: IC50_Mean
[12] = Luminescence Cell-Based Dose Confirmation HTS to Identify Activators of 5'UTR Stem-Loop Driven Alpha-Synuclein mRNA Translation in H4 Neuroglioblastoma Cells. [Related pubchem assays: 1829 (Project Summary), 1814 (Primary HTS)]; assay type: functional
H4 = test: Luminescence Cell-Based Dose Response HTS to Identify Activators of 5'UTR Stem-Loop Driven Prion Protein mRNA Translation in H4 Neuroglioblastoma Cells. [Related pubchem assays: 1829 (Project Summary), 1814 (Primary HTS)]; assay type: functional; settings: Homo sapiens
[13] = Luminescence Cell-Based Dose Response HTS to Identify Activators of Luciferase Translation or Activity in H4 […] Cells. [Related pubchem assays: 1829 (Project Summary), 1814 (Primary HTS)]; assay type: functional
INS1 = test: beta cell apoptosis inhibitors, cytokine rescue, dose response, luminescence, retest (AID 449756); assay type: functional, cell-based; settings: Rattus norvegicus;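 note: cell death triggered by IL-1 beta plus TNF-alpha plus IFN-gamma mixture; protective hits raise ATP signal compared with cytokine alone wells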
H9c2 = test: cells; assay type: functional, cell-based; settings: Rattus norvegicus, H9c2, Myocardium
[14] = cytotoxicity in OVCAR8 ovarian cancer cells, dose response, PAX8 project, cell-based, plate reader, dry powder samples (AID 743197); assay type: functional; settings: OVCAR-8
Paired box protein Pax-8 = Paired box protein Pax-8 (Homo sapiens, UniProt Q06710); test: inhibitors of PAX8-driven TPO luciferase reporter, dose response, RMG-I cells, cherry-pick (AID 687027); assay type: functional, cell-based;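 note: luciferase reporter driven by Pax8 target thyroperoxidase promoter measured by SteadyGlo luminescence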
Sequence of Paired box protein Pax-8 (Q06710 whole entry): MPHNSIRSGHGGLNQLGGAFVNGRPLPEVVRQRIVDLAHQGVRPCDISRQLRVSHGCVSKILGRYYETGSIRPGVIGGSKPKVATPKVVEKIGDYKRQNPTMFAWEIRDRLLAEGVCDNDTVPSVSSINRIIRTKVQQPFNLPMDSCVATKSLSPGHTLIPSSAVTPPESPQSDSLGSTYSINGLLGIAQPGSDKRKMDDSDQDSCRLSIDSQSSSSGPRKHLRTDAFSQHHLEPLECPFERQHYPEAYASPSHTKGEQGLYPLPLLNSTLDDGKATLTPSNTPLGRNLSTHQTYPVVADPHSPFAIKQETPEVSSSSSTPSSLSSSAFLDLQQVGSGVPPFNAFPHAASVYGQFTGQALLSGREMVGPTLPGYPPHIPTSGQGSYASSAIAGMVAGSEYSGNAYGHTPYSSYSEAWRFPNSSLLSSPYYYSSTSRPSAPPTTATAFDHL

[15] = molecular target: Induced myeloid leukemia cell differentiation protein Mcl-1 (Homo sapiens, UniProt Q07820); assay type: functional
Sequence of Induced myeloid leukemia cell differentiation protein Mcl-1 (Q07820 whole entry): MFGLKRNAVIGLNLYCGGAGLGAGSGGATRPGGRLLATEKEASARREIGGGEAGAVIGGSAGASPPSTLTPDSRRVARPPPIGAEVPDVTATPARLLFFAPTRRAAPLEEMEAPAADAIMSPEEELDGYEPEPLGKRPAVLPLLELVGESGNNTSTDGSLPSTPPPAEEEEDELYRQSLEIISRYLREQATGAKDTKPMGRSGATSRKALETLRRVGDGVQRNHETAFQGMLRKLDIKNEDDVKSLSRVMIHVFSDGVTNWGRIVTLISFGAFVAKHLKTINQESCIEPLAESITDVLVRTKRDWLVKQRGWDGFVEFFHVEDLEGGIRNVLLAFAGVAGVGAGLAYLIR

[16] = molecular target: T4, Heat shock factor protein 1 (Mus musculus, UniProt P38532); test: inhibition of MG132-induced HSE-luciferase signal, confirmation, cell-based, NIH3T3, luminescence, dose retest (AID 2382); assay type: functional;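 note: NIH3T3 fibroblasts with HSF1-driven luciferase reporter stressed by proteasome inhibitor MG132; luminescence from HSF1-driven luciferase expression after 8 hours of MG132 stress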
T4 sequence (P38532 whole entry): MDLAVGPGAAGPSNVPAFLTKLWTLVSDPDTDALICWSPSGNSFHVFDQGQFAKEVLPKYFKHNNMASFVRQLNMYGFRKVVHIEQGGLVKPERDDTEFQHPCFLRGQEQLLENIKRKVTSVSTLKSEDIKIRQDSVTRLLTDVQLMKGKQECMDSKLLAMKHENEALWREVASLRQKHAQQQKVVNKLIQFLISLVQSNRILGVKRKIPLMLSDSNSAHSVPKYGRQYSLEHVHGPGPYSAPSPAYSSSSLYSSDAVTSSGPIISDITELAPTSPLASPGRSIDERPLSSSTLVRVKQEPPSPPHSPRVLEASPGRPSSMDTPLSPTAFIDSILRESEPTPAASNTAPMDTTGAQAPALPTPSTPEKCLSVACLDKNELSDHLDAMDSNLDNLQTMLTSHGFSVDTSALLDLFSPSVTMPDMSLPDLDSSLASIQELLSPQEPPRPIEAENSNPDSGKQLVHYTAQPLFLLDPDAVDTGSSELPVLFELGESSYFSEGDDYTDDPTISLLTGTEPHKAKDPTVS

[17] = P. falciparum Dd2 growth inhibitors, dose response, SYBR Green, cherry-picked samples (AID 1159567); assay type: functional, cell-based

Sequence of FAD-linked sulfhydryl oxidase ALR (P55789 whole entry): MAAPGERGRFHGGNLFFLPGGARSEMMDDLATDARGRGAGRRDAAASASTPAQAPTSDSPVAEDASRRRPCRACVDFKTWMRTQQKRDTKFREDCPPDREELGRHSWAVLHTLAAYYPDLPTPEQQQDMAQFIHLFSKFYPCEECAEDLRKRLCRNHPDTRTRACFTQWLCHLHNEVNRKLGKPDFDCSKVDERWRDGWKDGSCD

## Cc1ccc2nc(-c3cccc(S(=O)(=O)N(C)C)c3)cn2c1
[1]
  AC50: 0.045 µM (active)

## Cc1c(NN=C2C(=O)NC(=O)NC2=O)c(=O)n(-c2ccccc2)n1C
Nonstructural protein 1
  IC50: 2.12 µM (active)

## CC(=O)N1CCN(c2ccc(NCc3ccc(Br)o3)cc2)CC1
[2]
  IC50: 13.7 µM (active)
[1]
  AC50: 0.743 µM (active)

## Cc1cc(C(=O)N[C@H](c2ccccc2)[C@@]2(C)C[C@@H]2[C@@H](C)C(=O)Nc2ccc3ccccc3c2)n(C)n1
[3]
  CC50: > 40 µM (active)
Cytochrome P450 1A2
  AC50: 20 µM (inconclusive)

## CCOC(=O)c1cc(C)nc(Sc2ccc(C)cc2)c1C#N
[3]
  CC50: > 40 µM (active)

## CCC(C)(C)n1nnnc1C(c1ccncc1)N1CCC(Cc2ccccc2)CC1 (stereo not drawn)
[4]
  EC50: 9.75 µM (active)
[5]
  EC50: > 60 µM (not active)
[6]
  EC50: 1.06 µM (active)

## COc1ccc(C(C(O)C(=O)c2c[nH]c3ccccc23)N2CCN(c3ccc(OC)cc3)CC2)cc1 (stereo not drawn)
[3]
  CC50: > 40 µM (active)

## Oc1ccccc1N1CCN(c2nnnn2-c2ccccc2)CC1
[1]
  AC50: 7.83 µM (active)

## Cc1ccc(O)c(C(=O)CC(=O)c2ccccc2Cl)c1
Streptococcus
  EC50: 9.81 µM (active)
[7]
  EC50: > 160 µM (inactive)
[3]
  CC50: 24.4 µM (active)
[8]
  EC50: 4.15 µM (active)
[9]
  EC50: 2.52 µM (active)

## CC(=O)Nc1ccc(S(=O)(=O)NC(C)C(=O)NC(C)c2ccccc2)cc1 (stereo not drawn)
[1]
  AC50: 0.083 µM (active)
[10]
  IC50: > 66 µM (inactive)
[11]
  IC50: > 66 µM (inactive)

## COc1cccc(N2CCN(C3CC(=O)N(c4ccc(Cl)c(Cl)c4)C3=O)CC2)c1 (stereo not drawn)
[4]
  EC50: 6.84 µM (active)

## O=C(NCc1nnc(S)n1-c1ccc(Br)cc1)c1ccc(S(=O)(=O)N2CCCC2)cc1
[1]
  AC50: 6.96 µM (active)

## Cc1ccc(NC(=O)CSCC(=O)N2c3ccccc3CCc3ccccc32)cc1
[4]
  EC50: 4.65 µM (active)

## Cc1ccccc1CSCCNC(=O)CCSc1ccccc1
[4]
  EC50: 3.24 µM (active)

## CN(C)c1ccc(N=Nc2cccc(F)c2)cc1
Nonstructural protein 1
  IC50: 25 µM (active)

## Cn1cc(C(=O)c2ccc(Cl)cc2Cl)cc1C(=O)NN=C(N)COc1ccccc1
[4]
  EC50: 3.97 µM (active)

## O=C(CSc1ccc(-c2ccccn2)nn1)c1ccccc1
[12]
  EC50: > 120 µM (not active)
H4
  EC50: 56.6 µM (active)
Nonstructural protein 1
  IC50: 10.9 µM (active)
[13]
  EC50: 8.47 µM (active)

## CC1CCN(C(=O)CSCC(=O)Nc2nc(-c3cccs3)cs2)CC1
[4]
  EC50: 2.23 µM (active)

## O=C(O)CCCCCNc1nc(S)nc2ccccc12
[1]
  AC50: 7.38 µM (active)

## Nc1c(N(CCC2=CCCCC2)C(=O)c2ccc([N+](=O)[O-])o2)c(=O)[nH]c(=O)n1Cc1ccccc1
[3]
  CC50: > 40 µM (active)
[5]
  EC50: > 60 µM (not active)
[6]
  EC50: 0.345 µM (active)

## C=C(C)C(=O)OCC(O)COc1ccc(C(C)(C)c2ccc(OCC(O)COC(=O)C(=C)C)cc2)cc1 (stereo not drawn)
[3]
  CC50: > 40 µM (active)
INS1
  AC50: 15 µM (active)

## COc1ccc2nc(NC(=O)C3CCCN3S(=O)(=O)c3ccc(C)cc3)sc2c1 (stereo not drawn)
[4]
  EC50: 57.5 µM (active)

## O=[N+]([O-])c1c(O)nc(/C=C\c2cccc(Cl)c2)nc1O
[1]
  AC50: 0.737 µM (active)

## C/C(=N\Nc1nnc2c3ccccc3n(C)c2n1)c1ccc(C)o1
[12]
  EC50: 17.5 µM (active)
H4
  EC50: > 120 µM (not active)
H9c2
  IC50: > 79 µM (inactive)
[13]
  EC50: 71.3 µM (active)

## C[C@@H]1CCCCO[C@@H](CN(C)Cc2ccccc2)[C@@H](C)CN([C@@H](C)CO)C(=O)c2cc(NS(=O)(=O)c3ccc(Cl)cc3)ccc2O1
[14]
  AC50: 63.2 µM (active)
Paired box protein Pax-8
  AC50: 5.43 µM (active)

## O=C(C[C@H]1C[C@@H]2c3cc(NC(=O)Nc4ccc(C(F)(F)F)cc4)ccc3O[C@@H]2[C@@H](CO)O1)NCCc1ccccc1
[14]
  AC50: 60.1 µM (active)
Paired box protein Pax-8
  AC50: 2.07 µM (active)

## C[C@H](CO)N1C[C@H](C)[C@H](CN(C)C(=O)c2ccccc2)OCCCC[C@H](C)Oc2ccc(NC(=O)Nc3ccc(C(F)(F)F)cc3)cc2C1=O
[14]
  AC50: > 70 µM (inactive)
Paired box protein Pax-8
  AC50: 5.26 µM (active)

## COc1ccc(C(=O)n2nc(C)c(Br)c2C)cc1
[15]
  IC50: 2.84 µM (not active)

## O=C(N/N=C/c1ccccc1O)C(=O)Nc1ccccn1
Nonstructural protein 1
  IC50: 10.8 µM (active)

## CC(C)n1cc(/C=N/Nc2ccc(C(=O)O)cc2)c2ccccc21
[1]
  AC50: 0.192 µM (active)
[16]
  EC50: < 0.16 µM (active)

## COc1cc(CN2CC3(CN(C(=O)CN4CCOCC4)C3)c3c(n(C)c4cc(OC)ccc34)[C@@H]2CO)cc(OC)c1
[17]
  AC50: 6.16 µM (active)

## O=C(c1ccc(F)cc1)N1CC(=O)N2[C@H](CO)[C@@H](c3ccc(/C=C/c4ccccc4)cc3)[C@@H]2C1
[17]
  AC50: 3.9 µM (active)

## C[C@H](CO)N1C[C@H](C)[C@H](CN(C)C(=O)Nc2ccc(F)cc2)Oc2cc(/C=C/c3ccccc3)ccc2S1(=O)=O
[17]
  AC50: 5.46 µM (active)

## O=C(C1CC1)N1CC(=O)N2[C@H](CO)[C@@H](c3ccc(C#CCc4ccccc4)cc3)[C@@H]2C1
[17]
  AC50: 5.44 µM (active)

## COc1ccc2c3c(n(C)c2c1)[C@H](CO)N(C(=O)Nc1ccc(F)cc1)CC31CCN(C(=O)c2cccnc2)CC1
[17]
  AC50: 4.52 µM (active)
